Here are results for one molecule from ChEMBL document CHEMBL1127488, “Interaction of tetrahydrostilbazoles with monoamine oxidase A and B” (J Med Chem, 1994).

The target of this experiment is T1, Amine oxidase [flavin-containing] A (Homo sapiens, UniProt P21397).
T1 sequence (P21397 whole entry): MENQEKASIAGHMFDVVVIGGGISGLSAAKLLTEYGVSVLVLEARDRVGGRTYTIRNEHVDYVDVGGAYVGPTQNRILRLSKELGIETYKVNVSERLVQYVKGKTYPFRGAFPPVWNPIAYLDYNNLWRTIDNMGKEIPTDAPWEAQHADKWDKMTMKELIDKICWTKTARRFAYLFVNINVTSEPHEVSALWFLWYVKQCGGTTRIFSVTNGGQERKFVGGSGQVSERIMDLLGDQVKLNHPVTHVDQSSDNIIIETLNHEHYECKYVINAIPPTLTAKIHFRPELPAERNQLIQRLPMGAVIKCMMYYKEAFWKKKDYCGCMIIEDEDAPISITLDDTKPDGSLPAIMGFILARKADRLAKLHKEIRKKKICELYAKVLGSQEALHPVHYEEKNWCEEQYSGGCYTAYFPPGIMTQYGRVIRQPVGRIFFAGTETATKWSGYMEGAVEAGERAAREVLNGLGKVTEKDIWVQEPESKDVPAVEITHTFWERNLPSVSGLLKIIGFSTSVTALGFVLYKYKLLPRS
The experiment is described as follows: Compound was tested for the inhibition of monoamine oxidase A (MAO A) from human liver.

On to `C[C@@H]1NC(=O)[C@H](NC(=O)[C@@H](N)Cc2ccc(O)cc2)C(C)(C)SSC(C)(C)[C@@H](C(O)O)NC(=O)[C@H](Cc2ccccc2)NC1=O`, for which the Ki (commonly a dissociation constant, usually derived from enzyme kinetics or from competition with a known ligand) is 2 µM.
